# Reference: patent US10336735B2, “Small molecule inhibitors of fibrosis” (THE CALIFORNIA INSTITUTE FOR BIOMEDICAL RESEARCH, priority 2014, dated 2019)
# System: primary human lung fibroblasts and primary rodent HSCs
# Experiment: High content imaging assay (α-SMA staining, cell morphology) of fibroblast to myofibroblast transdifferentiation, confirmed by Western blot and RT-PCR
# Conditions: Homo sapiens, Fibroblast; imaging and western based activity
# From the text: High content imaging assays have been established, using primary human lung fibroblasts and primary rodent HSCs, that enable the identification of small molecules that either inhibit myofibroblast formation/activation or induce the reversion of activated myofibroblasts to a quiescent fibroblast state. Conditions, involving serum starvation and subsequent TGF-β treatment, have been identified that facilitate robust in vitro transdifferentiation in a miniaturized (384 well plate) format that is amenable to high throughput small molecule screening. The inhibition assay is based on α-SMA immunofluorescent staining and cell morphology changes associated with fibroblast to myofibroblast transdifferentiation, Using the selective ALK-5 TGF-β1 receptor inhibitor ([…]) as a positive control, the inhibition assay has been used to initiate a screen of a collection of ˜100,000 small molecules that consists of bioactive small molecules and a diversity set that has been assembled based on 2D and 3D structural diversity and inherent “drug-likeness” properties. Preliminary screening led to the identification of multiple previously identified anti-fibrotic molecules.
# A high content imaging assay, based on α-SMA staining and cell morphological changes associated with fibroblast to myofibroblast transdifferentiation, was established using primary human lung fibroblasts and primary rodent HSCs. Conditions, involving serum starvation and subsequent TGF-β treatment, were identified that facilitate robust in vitro transdifferentiation in a miniaturized (384 well plate) format that is amenable to high throughput small molecule screening. A selective ALK-5 TGF-β1 receptor inhibitor (SB-431542) was used as a positive control. […] This assay was used to evaluate compounds of Formula (I), (Ia), (II), (IIa), (III), (IIIa), (IV), (IVa), (IVb), (V), (Va), (VI), (VIa), (VIb), (VIc), (VII), (VIIa), (VIII), (VIIIa), (IX), (IXa), (X), or (Xa) generated from medicinal chemistry efforts.
# The activity of Itraconazole and compounds of Formula (I), (Ia), (II), (IIa), (III), (IIIa), (IV), (IVa), (IVb), (V), (Va), (VI), (VIa), (VIb), (VIc), (VII), (VIIa), (VIII), (VIIIa), (IX), (IXa), (X), or (Xa) was confirmed by analyzing changes in gene expression of multiple genes associated with fibroblast to myofibroblast transdifferentiation using biochemical methods (i.e., Western blot and RT-PCR). These 4-day assays were used to evaluate sets of 6 compounds at a time in 4-point dose response fashion.
# The EC50 for (imaging and western based) activity is graded as: +++=<500 nM; ++=500 nM to 5 μM; +=5 to 30 μM); −=>30 μM; NT=Not Tested.
row,Compound,EC50 [µM]
1,CCC(C)n1ncn(-c2ccc(N3CCN(c4ccc(OC[C@H]5OC[C@](Cn6cncn6)(c6ccc(F)cc6F)O5)cc4)CC3)cc2)c1=O (mixture of isomers) [compound 200],< 0.5
2,CCC(C)n1cnn(-c2ccc(N3CCN(c4ccc(OC[C@@H]5CO[C@@](Cc6ccnnc6)(c6ccccc6)O5)cc4)CC3)cc2)c1=O (mixture of isomers) [Compound 102],0.5 to 5
3,"CC(C)N1CCN(c2ccc(N3CCN(c4ccc(OC[C@H]5OC[C@](Cn6nccn6)(c6ccc(F)cc6F)O5)cc4)CC3)cc2)C1=O (racemic) [Compound 203, cis (±)-1-(4-(4-(4-((4-((2H-1,2,3-triazol-2-yl)methyl)-4-(2,4-difluorophenyl)-1,3-dioxolan-2-yl)methoxy)phenyl)piperazin-1-yl)phenyl)-3-isopropylimidazolidin-2-one]",> 30
4,CC(=O)N1CCN(c2ccc(OC[C@@H]3CO[C@@](Cn4nccn4)(c4ccc(Cl)cc4Cl)O3)cc2)CC1 [Compound 4],> 30
5,CC(C)N1CCN(c2ccc(OC[C@@H]3CO[C@@](Cn4nccn4)(c4ccc(Cl)cc4Cl)O3)cc2)CC1 [Compound 5],5 to 30
6,CCC(C)n1ncn(-c2ccc(OC[C@@H]3CO[C@@](Cn4nccn4)(c4ccc(Cl)cc4Cl)O3)cc2)c1=O (stereo partly drawn) [Compound 6],> 30
7,CCC(C)n1ncn(-c2ccc(N3CCN(C[C@@H]4CO[C@@](Cn5nccn5)(c5ccc(Cl)cc5Cl)O4)CC3)cc2)c1=O (stereo partly drawn) [Compound 7],> 30
8,CCC(C)n1ncn(-c2ccc(-c3ccc(OC[C@@H]4CO[C@@](Cn5nccn5)(c5ccc(Cl)cc5Cl)O4)cc3)cc2)c1=O (stereo partly drawn) [Compound 8],> 30
9,CC(=O)C(C)n1cnn(-c2ccc(N3CCN(c4ccc(OC[C@@H]5CO[C@@](Cn6nccn6)(c6ccc(Cl)cc6Cl)O5)cc4)CC3)cc2)c1=O (stereo partly drawn) [Compound 10],0.5 to 5
10,CCCC(C)n1ncn(-c2ccc(N3CCN(c4ccc(OC[C@@H]5CO[C@@](Cn6nccn6)(c6ccc(Cl)cc6Cl)O5)cc4)CC3)cc2)c1=O (stereo partly drawn) [Compound 12],0.5 to 5
11,CCC(CC)n1ncn(-c2ccc(N3CCN(c4ccc(OC[C@@H]5CO[C@@](Cn6nccn6)(c6ccc(Cl)cc6Cl)O5)cc4)CC3)cc2)c1=O [Compound 13],0.5 to 5
12,O=c1n(-c2ccc(N3CCN(c4ccc(OC[C@@H]5CO[C@@](Cn6nccn6)(c6ccc(Cl)cc6Cl)O5)cc4)CC3)cc2)cnn1CC1CCCC1 [Compound 14],< 0.5
13,O=c1n(-c2ccc(N3CCN(c4ccc(OC[C@@H]5CO[C@@](Cn6nccn6)(c6ccccc6)O5)cc4)CC3)cc2)cnn1CC1CCNCC1 [Compound 15],5 to 30
14,CC(O)C(C)n1cnn(-c2ccc(N3CCN(c4ccc(OC[C@@H]5CO[C@@](Cn6nccn6)(c6ccccc6)O5)cc4)CC3)cc2)c1=O (stereo partly drawn) [Compound 16],5 to 30
15,CC(CCN)n1ncn(-c2ccc(N3CCN(c4ccc(OC[C@@H]5CO[C@@](Cn6nccn6)(c6ccccc6)O5)cc4)CC3)cc2)c1=O (stereo partly drawn) [Compound 17],5 to 30
16,CC(C)n1ncn(-c2ccc(N3CCN(c4ccc(OC[C@@H]5CO[C@@](Cn6nccn6)(c6ccccc6)O5)cc4)CC3)cc2)c1=O [Compound 18],5 to 30
17,CC(C)Cn1ncn(-c2ccc(N3CCN(c4ccc(OC[C@@H]5CO[C@@](Cn6nccn6)(c6ccccc6)O5)cc4)CC3)cc2)c1=O [Compound 19],0.5 to 5
18,O=c1n(-c2ccc(N3CCN(c4ccc(OC[C@@H]5CO[C@@](Cn6nccn6)(c6ccccc6)O5)cc4)CC3)cc2)cnn1CC1CCCC1 [Compound 20],5 to 30
19,CCCC(C)n1ncn(-c2ccc(N3CCN(c4ccc(OC[C@@H]5CO[C@@](Cn6nccn6)(c6ccc(C#N)cc6C)O5)cc4)CC3)cc2)c1=O (stereo partly drawn) [Compound 23],0.5 to 5
20,CCC(C)n1ncn(-c2ccc(N3CCN(c4ccc(OC[C@@H]5CO[C@@](Cn6nccn6)(c6ccc(C#N)cc6C)O5)cc4)CC3)cc2)c1=O (stereo partly drawn) [Compound 24],0.5 to 5
21,Cc1cc(C#N)ccc1[C@]1(Cn2nccn2)OC[C@@H](COc2ccc(N3CCN(c4ccc(-n5cnn(CC6CCCC6)c5=O)cc4)CC3)cc2)O1 [Compound 25],0.5 to 5
22,CCC(C)n1ncn(-c2ccc(N3CCN(c4ccc(OC[C@@H]5CO[C@@](Cn6nccn6)(c6ccc(C#N)cc6Cl)O5)cc4)CC3)cc2)c1=O (stereo partly drawn) [Compound 26],5 to 30

row,Compound,EC50 [µM]
1,CCC(C)n1ncn(-c2ccc(N3CCN(c4ccc(OC[C@@H]5CO[C@@](Cn6nccn6)(c6cc(C#N)ccc6Cl)O5)cc4)CC3)cc2)c1=O (stereo partly drawn) [Compound 27],5 to 30
2,CCC(C)n1ncn(-c2ccc(N3CCN(c4ccc(OC[C@@H]5CO[C@@](Cn6nccn6)(c6cc(C#N)ccc6C)O5)cc4)CC3)cc2)c1=O (stereo partly drawn) [Compound 28],5 to 30
3,CCC(C)n1ncn(-c2ccc(N3CCN(c4ccc(OC[C@@H]5CO[C@@](Cn6nccn6)(c6cccc(Cl)c6Cl)O5)cc4)CC3)cc2)c1=O (stereo partly drawn) [Compound 29],< 0.5
4,CCC(C)n1ncn(-c2ccc(N3CCN(c4ccc(OC[C@@H]5CO[C@@](Cn6nccn6)(c6ccc(Br)cc6Br)O5)cc4)CC3)cc2)c1=O (stereo partly drawn) [Compound 30],0.5 to 5
5,CCC(C)n1ncn(-c2ccc(N3CCN(c4ccc(OC[C@@H]5CO[C@@](Cn6nccn6)(c6ccc(Cl)cc6Br)O5)cc4)CC3)cc2)c1=O (stereo partly drawn) [Compound 31],< 0.5
6,CCC(C)n1ncn(-c2ccc(N3CCN(c4ccc(OC[C@@H]5CO[C@@](Cn6nccn6)(c6cc(Cl)ccc6Cl)O5)cc4)CC3)cc2)c1=O (stereo partly drawn) [Compound 33],0.5 to 5
7,CCC(C)n1ncn(-c2ccc(N3CCN(c4ccc(OC[C@@H]5CO[C@@](Cn6nccn6)(c6cc(Cl)ccc6C)O5)cc4)CC3)cc2)c1=O (stereo partly drawn) [Compound 34],0.5 to 5
8,CCC(C)n1ncn(-c2ccc(N3CCN(c4ccc(OC[C@@H]5CO[C@@](Cn6nccn6)(c6cc(Cl)ccc6Br)O5)cc4)CC3)cc2)c1=O (stereo partly drawn) [Compound 35],0.5 to 5
9,CCC(C)n1ncn(-c2ccc(N3CCN(c4ccc(OC[C@@H]5CO[C@@](Cn6nccn6)(c6ccc(CN)cc6)O5)cc4)CC3)cc2)c1=O (stereo partly drawn) [Compound 37],0.5 to 5
10,CCC(C)n1ncn(-c2ccc(N3CCN(c4ccc(OC[C@@H]5CO[C@@](Cn6nccn6)(c6ncccn6)O5)cc4)CC3)cc2)c1=O (stereo partly drawn) [Compound 38],> 30
11,CCC(C)n1ncn(-c2ccc(N3CCN(c4ccc(OC[C@@H]5CO[C@@](CCl)(c6ccc(Cl)cc6Cl)O5)cc4)CC3)cc2)c1=O (stereo partly drawn) [Compound 39],0.5 to 5
12,CCC(C)n1ncn(-c2ccc(N3CCN(c4ccc(OC[C@@H]5CO[C@@](CC)(c6ccc(Cl)cc6Cl)O5)cc4)CC3)cc2)c1=O (stereo partly drawn) [Compound 40],0.5 to 5
13,CCC(C)n1ncn(-c2ccc(N3CCN(c4ccc(OC[C@@H]5CO[C@@](Cn6ccc(=O)cc6)(c6ccc(Cl)cc6Cl)O5)cc4)CC3)cc2)c1=O (stereo partly drawn) [Compound 41],< 0.5
14,CCC(C)n1ncn(-c2ccc(N3CCN(c4ccc(OC[C@@H]5CO[C@@](Cn6ncc(Cl)c(Cl)c6=O)(c6ccc(Cl)cc6Cl)O5)cc4)CC3)cc2)c1=O (stereo partly drawn) [Compound 42],5 to 30
15,CCC(C)n1ncn(-c2ccc(N3CCN(c4ccc(OC[C@@H]5CO[C@@](CN6CCOCC6)(c6ccc(Cl)cc6Cl)O5)cc4)CC3)cc2)c1=O (stereo partly drawn) [Compound 44],> 30
16,CCC(C)n1ncn(-c2ccc(N3CCN(c4ccc(OC[C@@H]5CO[C@](CN6CCOCC6)(c6ccc(Cl)cc6Cl)O5)cc4)CC3)cc2)c1=O (stereo partly drawn) [Compound 45],> 30
17,CCC(C)n1ncn(-c2ccc(N3CCN(c4ccc(OC[C@@H]5CO[C@@](Cn6cccn6)(c6ccccc6)O5)cc4)CC3)cc2)c1=O (stereo partly drawn) [Compound 48],< 0.5
18,CCC(C)n1ncn(-c2ccc(N3CCN(c4ccc(OC[C@@H]5CO[C@@](Cn6ncc7ccccc76)(c6ccc(Cl)cc6Cl)O5)cc4)CC3)cc2)c1=O (stereo partly drawn) [Compound 49],0.5 to 5
19,CCC(C)n1ncn(-c2ccc(N3CCN(c4ccc(OC[C@@H]5CO[C@@](Cn6nc7ccccc7n6)(c6ccc(C#N)cc6C)O5)cc4)CC3)cc2)c1=O (stereo partly drawn) [Compound 50],0.5 to 5
20,CCC(C)n1ncn(-c2ccc(N3CCN(c4ccc(OC[C@@H]5CO[C@@](Cn6cccn6)(c6ccc(C#N)cc6C)O5)cc4)CC3)cc2)c1=O (stereo partly drawn) [Compound 51],< 0.5
21,CCC(C)n1ncn(-c2ccc(N3CCN(c4ccc(OC[C@@H]5CO[C@@](CCn6nccn6)(c6ccc(Cl)cc6Cl)O5)cc4)CC3)cc2)c1=O (stereo partly drawn) [Compound 52],< 0.5
22,CCC(C)n1ncn(-c2ccc(N3CCN(c4ccc(OC[C@@H]5CO[C@@](Cn6nccn6)(c6ccc(Cl)cc6Cl)O5)cn4)CC3)cc2)c1=O (stereo partly drawn) [Compound 53],0.5 to 5

# Same assay, conditions: imaging and western based activity
row,Compound,EC50 [µM]
1,CCC(CC)n1ncn(-c2ccc(N3CCN(c4ccc(OC[C@@H]5CO[C@@](Cn6nccn6)(c6ccccc6)O5)cc4)CC3)cc2)c1=O [Compound 21],< 0.5
